Biological target: T1, recombinant human M1 receptor (Homo sapiens, UniProt P11229)
T1 sequence (P11229 1-460): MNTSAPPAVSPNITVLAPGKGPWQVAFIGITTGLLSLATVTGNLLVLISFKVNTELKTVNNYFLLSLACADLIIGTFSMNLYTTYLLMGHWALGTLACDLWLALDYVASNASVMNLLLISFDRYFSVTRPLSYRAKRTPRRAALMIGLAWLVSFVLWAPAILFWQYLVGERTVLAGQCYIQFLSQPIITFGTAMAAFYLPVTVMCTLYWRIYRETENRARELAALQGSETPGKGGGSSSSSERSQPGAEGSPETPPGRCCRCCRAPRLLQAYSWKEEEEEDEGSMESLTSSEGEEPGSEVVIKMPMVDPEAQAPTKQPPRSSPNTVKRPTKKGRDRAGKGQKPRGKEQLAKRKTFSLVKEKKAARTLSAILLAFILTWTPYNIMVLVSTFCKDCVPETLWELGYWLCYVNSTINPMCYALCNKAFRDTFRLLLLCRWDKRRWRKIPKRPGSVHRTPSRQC
Assay: Inhibition of carbacol-induced Ca2+ mobilization in CHO-M1 cells
Assay type: cell-based
Conditions: for inhibition of carbacol induced M1 receptor activities: compound at 10 μM

Row | inhibition of carbacol induced M1 receptor activities (CHO-M1 cells) | Compound | further results
1 |  | O=C(O)/C=C/c1ccc(O)c(O)c1 [caffeic acid, reference compound] | activity against M1 receptor (concentrations up to 10 μM, CHO-M1 cells): did not show any activity
2 | 35-40% | NCCCCNC(=O)/C=C/c1ccc(O)c(O)c1 [compound 6, cafeoylputrescine] | 
3 | 35-40% | scotanamine A [compound 1] | 
4 |  | scotanamine C [compound 3] | IC50 (read-out: IC50, inhibitory activity against M1 receptor): 7.8 µM

From paper PMC4698058 (Fitoterapia, 2015)
